This note sets out measurements from ChEMBL document CHEMBL3507680, “University of Dundee, Gates Library screen for HepG2 cell viability”.

Molecules are shown by their SMILES.

A short description of this data set: Human HepG2 cell viability assay in 384 well format. The data set is classed as toxicity, cell-based. Further details: dose 125 nL, time 70.5 hour; concentration not given beside the values. The settings on record: HepG2 cells, read-out: Inhibition.
With `CNS(=O)(=O)CC1CCCN1C(=O)c1ccc2cc[nH]c2c1` (stereo unspecified), the cytotoxicity at 70.5 h is -7.71%.

As for `Oc1ccccc1-c1n[nH]c(C2CC2)n1`, the cytotoxicity at 70.5 h turned out to be 11.6%.

Take `COCCN1C(=O)[C@H]2CC[C@@H]1CN(S(=O)(=O)c1ccc(C#N)cc1)C2`: the cytotoxicity at 70.5 h was -3.7%.

`COCCOC1CCN(C(C(=O)O)c2ccc(F)c(Cl)c2)CC1` (stereo unspecified): the cytotoxicity at 70.5 h was -9.08%.

Regarding `CC1=Nc2c(c(=O)[nH]n2C(C)C)C(c2ccc3nccnc3c2)S1` (stereo unspecified), the cytotoxicity at 70.5 h was -2.49%.

As for `Cc1cc(-c2ccc(=O)n(CCNC(=O)C3CC3)n2)c(C)o1`, the cytotoxicity at 70.5 h was determined as 0.992%.

For the compound `CC(C)(C)NC(=O)c1cccc(CN2CCS(=O)(=O)CC2)c1`, the cytotoxicity at 70.5 h was -4.97%.

As to `Cc1nc(Nc2nncs2)cc(C2CCCN2)n1` (stereo unspecified), the cytotoxicity at 70.5 h was -4.59%.

On to `O=C(O)CCn1ccc2c(nnc3c(-c4ccc(F)cc4)cnn32)c1=O`, for which the cytotoxicity at 70.5 h was -24.9%.

With `CC(Cn1cccn1)NC(=O)Cc1cccs1` (stereo unspecified), the cytotoxicity at 70.5 h was -6.09%.

Consider `O=C(NCCN1CCC(c2cccs2)CC1)Nc1cccs1`, for which the cytotoxicity at 70.5 h was -3.14%.

With `Cc1ocnc1C(=O)Nc1ccc(-c2nnc(N(C)C)o2)cc1`, the cytotoxicity at 70.5 h was -3.15%.

Turning to `Cc1cc(N2Cc3cnn(CCO)c3C2)nc(-c2ccccc2)n1`, the cytotoxicity at 70.5 h is -11.9%.

For `CCOCCCNC(=O)Cc1cccs1`, the cytotoxicity at 70.5 h is -1.71%.

Turning to `CC1(C(=O)N2CCOCC2)CN(Cc2cccnc2)CCO1` (stereo unspecified), the cytotoxicity at 70.5 h was -8.77%.

Turning to `CCn1nc(C)cc1C(=O)NCc1noc(C(C)(C)C)n1`, the cytotoxicity at 70.5 h was -1.63%.

Regarding `O=C(NCC1CC1)C1CCC2(CCNCC2)C1` (stereo unspecified), the cytotoxicity at 70.5 h is -2.15%.

As to `Cc1c(C2CCCN(C(=O)c3ccncc3)C2)n2c(nc1=O)CCC2` (stereo unspecified), the cytotoxicity at 70.5 h is -9.8%.

Consider `CC(C)COc1ccccc1CN(C)C(=O)c1cc(=O)[nH]c(=O)[nH]1`, for which the cytotoxicity at 70.5 h is -8.79%.

As to `CC(C)(C)n1ncc2c1NC(=O)CC2c1cccc(F)c1` (stereo unspecified), the cytotoxicity at 70.5 h came to 3.13%.

With `CC(C)(C)CNC(=O)c1ccc(C(=O)O)cc1`, the cytotoxicity at 70.5 h was -5.94%.

`CNc1cncc(C2CCCN2C(=O)c2ccc3c(c2)CCC3)n1` (stereo unspecified): the cytotoxicity at 70.5 h was 9.47%.

For `N#Cc1c(C2CC2)cc(-c2ccc(O)cc2)nc1N`, the cytotoxicity at 70.5 h is 1.29%.

For the compound `CC(NC(=O)CSCC#N)c1ccc(Cl)cc1` (stereo unspecified), the cytotoxicity at 70.5 h is -4.42%.

As to `OC1(CNCCc2nc(Cc3ccccc3)no2)CNCCOC1` (stereo unspecified), the cytotoxicity at 70.5 h came to 0.264%.

As to `CCC1CC(=O)NCc2nc3sc(C)cn3c21` (stereo unspecified), the cytotoxicity at 70.5 h is -4.35%.

On to `CC(C)C(C)NC(=O)Nc1ccc(CS(=O)(=O)C(C)C)cc1` (stereo unspecified), for which the cytotoxicity at 70.5 h is -12.6%.

Take `Cc1c(C(=O)N2CCCOCC2)nnn1-c1cccc2cnccc12`: the cytotoxicity at 70.5 h was -0.438%.

In the case of `FC1(F)CCN(Cc2ccccn2)CC12CCN(c1cccnc1)C2` (stereo unspecified), the cytotoxicity at 70.5 h was determined as 21.6%.

As for `CC(C)N1CCC(N2CCC(C(=O)N(C)C)CC2)CC1`, the cytotoxicity at 70.5 h was determined as 1.65%.

With `CC(C(=O)N1CCCCCC1)N1CCN(c2nccs2)CC1` (stereo unspecified), the cytotoxicity at 70.5 h worked out at 19.7%.

On to `CN1CCC(NC(=O)Nc2ccc(Cl)c(F)c2)C1=O` (stereo unspecified), for which the cytotoxicity at 70.5 h amounted to 2.58%.

Consider `COc1cc(N2CCC3(CCN(Cc4nccs4)CC3)C2)ncn1`, for which the cytotoxicity at 70.5 h came to 30.8%.

With `COCC(=O)N1CC(c2csc(NC(C)=O)n2)C1`, the cytotoxicity at 70.5 h was -3.83%.

Consider `Cc1nc(-c2ccc(S(=O)(=O)N3CCCCC3)cc2)co1`, for which the cytotoxicity at 70.5 h is -8.94%.

`Cc1c(C)n2c(SCC(=O)N3CCOCC3)nnc2[nH]c1=O`: the cytotoxicity at 70.5 h was -3.31%.

Take `CC(C)c1noc(C(C)N2CCN(Cc3cccnc3)CC2)n1` (stereo unspecified): the cytotoxicity at 70.5 h was -5.62%.

With `COC(=O)c1ccc(CNCc2cn(C)nc2C)cc1`, the cytotoxicity at 70.5 h stood at 1.28%.

For the compound `COc1ccc(F)cc1C(=O)N(C)[C@@H]1CC[C@@H](O)[C@@H]1O`, the cytotoxicity at 70.5 h was -9.84%.

On to `N#Cc1ccc(C(=O)NS(=O)(=O)c2ccc(F)c(F)c2)cc1`, for which the cytotoxicity at 70.5 h amounted to 28.9%.

For `COCCn1cc(C(=O)N2CCCC2c2ccncc2)c2ccccc21` (stereo unspecified), the cytotoxicity at 70.5 h was -4.2%.

Consider `O=c1cccnn1CC1CN(CC2CCCC2)Cc2nccn2C1` (stereo unspecified), for which the cytotoxicity at 70.5 h is -5.89%.

`c1cnc(N2CCCC(c3cncc(-n4ccnc4)n3)C2)nc1` (stereo unspecified): the cytotoxicity at 70.5 h is 13.4%.

Turning to `CNCC[C@H]1CC(C)(C)Oc2ccc(C)cc21`, the cytotoxicity at 70.5 h was -2.65%.

For `Cc1nccc([C@@H]2C[C@@H]3CCN(S(=O)(=O)C4CC4)C[C@H]3O2)n1`, the cytotoxicity at 70.5 h is -1.95%.

Turning to `CCCC(=O)NC(Cc1ccc(C)cc1)c1ccccn1` (stereo unspecified), the cytotoxicity at 70.5 h was found to be 2.81%.

For the compound `Cc1csc(C2(NCCC(=O)N3CCOCC3)CCCC2)n1`, the cytotoxicity at 70.5 h came out at 4.83%.

On to `O=C(CC1CC1)N[C@@H]1CN(Cc2ccco2)C[C@@H]2CCCO[C@@H]21`, for which the cytotoxicity at 70.5 h is -2.26%.

With `Cc1noc([C@]23COC[C@H]2CN(S(=O)(=O)N(C)C)C3)n1`, the cytotoxicity at 70.5 h is -1.88%.

Regarding `CC(C)c1ncc2c(n1)CN(Cc1nc(-c3cccs3)no1)CC2`, the cytotoxicity at 70.5 h was -11.9%.

For the compound `O=C(O)C(c1ccc(Cl)c(F)c1)N1CCN(Cc2ccccn2)CC1` (stereo unspecified), the cytotoxicity at 70.5 h was -2.57%.

`Cc1nn(C)c(C)c1C(=O)NCc1ccnc(OCC(F)(F)F)c1`: the cytotoxicity at 70.5 h was -4.39%.

In the case of `CSCCC(=O)N(C/C=C/c1ccccc1)CCO`, the cytotoxicity at 70.5 h is -5.02%.

Turning to `Cc1csc2c(N3CCNC(C(=O)N4CCCC4)C3)ncnc12` (stereo unspecified), the cytotoxicity at 70.5 h was -7.34%.

Consider `Cn1c(Cn2ncc(N3CCCC3)cc2=O)nc2ccccc21`, for which the cytotoxicity at 70.5 h amounted to 25.6%.

As to `Cc1noc(C)c1CNC(=O)N1CCC(OCC2CC2)CC1`, the cytotoxicity at 70.5 h worked out at 25.4%.

Take `CC(C)Cn1cnc(S(=O)(=O)NCCc2nnc3ccccn23)c1`: the cytotoxicity at 70.5 h came out at 15.7%.

Turning to `CCCc1nc(C)c(C(=O)NCCNc2ncccc2C#N)s1`, the cytotoxicity at 70.5 h was determined as 0.537%.

As to `CCNC(=O)NC(C)(C)C(=O)NCc1cccc(N2CC=CC2)c1`, the cytotoxicity at 70.5 h amounted to 2.33%.

As for `CN(C)C(=O)CNC(=O)c1cc(Br)c2c(c1)OCCO2`, the cytotoxicity at 70.5 h was -3.47%.

As for `CCS(=O)(=O)NCC(=O)N(C1CC1)C1Cc2ccccc2C1`, the cytotoxicity at 70.5 h is -9.21%.

As to `CNC(=O)NCC(=O)N(C)C(c1ccc(Cl)cc1)c1cccnc1` (stereo unspecified), the cytotoxicity at 70.5 h was 21.3%.

On to `CC(C)N1CCN(C(=O)Nc2cnc3c(cnn3C(C)C)c2)CC1`, for which the cytotoxicity at 70.5 h turned out to be 1.68%.

Turning to `Fc1cc(Cl)cnc1N1CCCC(c2nccn2CC2CC2)C1` (stereo unspecified), the cytotoxicity at 70.5 h amounted to 22.7%.

In the case of `COc1ccccc1-c1noc(CCC(=O)NC(C)Cn2cccn2)n1` (stereo unspecified), the cytotoxicity at 70.5 h was -3.38%.

As for `CCOc1cccc(C2CC(=O)NCc3nc(N)sc32)c1` (stereo unspecified), the cytotoxicity at 70.5 h is -11.2%.

In the case of `CN(C)C(=O)N1CCCC(C(=O)N(C)Cc2cnc(N)nc2)C1` (stereo unspecified), the cytotoxicity at 70.5 h is -10.7%.

As for `CNC(=O)[C@@H]1[C@@H](OC(=O)Nc2ccccc2)C(=O)N(C)C12CCNCC2`, the cytotoxicity at 70.5 h was -2.76%.

Regarding `Cc1cnc(N2C[C@H]3C[C@H](C(=O)N(C)C)[C@@H](C2)O3)nc1`, the cytotoxicity at 70.5 h was -13.5%.

On to `COc1ccc(-c2cccc(-c3ccn(CC4COCCO4)n3)c2)nn1` (stereo unspecified), for which the cytotoxicity at 70.5 h was -5.24%.

For `CN(Cc1cncnc1)[C@H]1CN(CC2CC2)[C@@H]2CCCO[C@@H]21`, the cytotoxicity at 70.5 h was -5.03%.
